Measured values reported in ChEMBL document CHEMBL1201862, “PubChem BioAssay data set” (2004).
Calls of active or inactive are those of the source.

Experiments:
Large T antigen = Large T antigen (Simian virus 40, UniProt P03070); type: functional, Betapolyomavirus macacae;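 note: Confirmatory-stage PubChem screen for compounds that inhibit SV40 T antigen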
[1] = target: Luciferin 4-monooxygenase (Photinus pyralis, UniProt P08659); experiment: inhibition of purified Photinus pyralis luciferase – biochemical, luminescence, dose response (AID 1891)
Luciferin 4-monooxygenase, sequence (P08659 whole entry): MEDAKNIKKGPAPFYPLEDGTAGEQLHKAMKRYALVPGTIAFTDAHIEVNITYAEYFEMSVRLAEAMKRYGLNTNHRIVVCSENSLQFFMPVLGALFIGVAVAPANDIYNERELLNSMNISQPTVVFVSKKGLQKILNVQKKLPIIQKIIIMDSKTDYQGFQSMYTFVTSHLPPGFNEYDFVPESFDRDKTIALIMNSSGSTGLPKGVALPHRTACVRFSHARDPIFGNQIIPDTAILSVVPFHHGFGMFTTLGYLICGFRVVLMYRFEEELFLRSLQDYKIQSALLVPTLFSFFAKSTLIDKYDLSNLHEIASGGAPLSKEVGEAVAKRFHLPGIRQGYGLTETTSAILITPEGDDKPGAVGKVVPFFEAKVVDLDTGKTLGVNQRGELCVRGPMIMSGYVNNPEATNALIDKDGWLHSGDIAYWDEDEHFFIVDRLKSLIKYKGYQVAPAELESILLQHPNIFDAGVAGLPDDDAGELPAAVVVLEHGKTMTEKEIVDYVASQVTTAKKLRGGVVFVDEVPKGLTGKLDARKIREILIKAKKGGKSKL

[2] = Luminescence Cell-Based Dose Confirmation HTS to Identify Inhibitors of Platelet Dense Granule Release. [Related pubchem assays: 1663 (Primary HTS), 1678 (Summary of Project)]; type: functional
[3] = viability loss in HeLa cells – cytotoxicity control for MgcRacGAP inhibitor project, dose response (AID 624300); type: functional
[4] = target: T1, Rac GTPase-activating protein 1 (Homo sapiens, UniProt Q9H0H5); experiment: blockers of MgcRacGAP-driven Rac1 GTP hydrolysis – biochemical, ADP Hunter fluorescence, primary and confirmatory, confirmation (AID 624330); type: functional
T1 sequence (Q9H0H5 whole entry): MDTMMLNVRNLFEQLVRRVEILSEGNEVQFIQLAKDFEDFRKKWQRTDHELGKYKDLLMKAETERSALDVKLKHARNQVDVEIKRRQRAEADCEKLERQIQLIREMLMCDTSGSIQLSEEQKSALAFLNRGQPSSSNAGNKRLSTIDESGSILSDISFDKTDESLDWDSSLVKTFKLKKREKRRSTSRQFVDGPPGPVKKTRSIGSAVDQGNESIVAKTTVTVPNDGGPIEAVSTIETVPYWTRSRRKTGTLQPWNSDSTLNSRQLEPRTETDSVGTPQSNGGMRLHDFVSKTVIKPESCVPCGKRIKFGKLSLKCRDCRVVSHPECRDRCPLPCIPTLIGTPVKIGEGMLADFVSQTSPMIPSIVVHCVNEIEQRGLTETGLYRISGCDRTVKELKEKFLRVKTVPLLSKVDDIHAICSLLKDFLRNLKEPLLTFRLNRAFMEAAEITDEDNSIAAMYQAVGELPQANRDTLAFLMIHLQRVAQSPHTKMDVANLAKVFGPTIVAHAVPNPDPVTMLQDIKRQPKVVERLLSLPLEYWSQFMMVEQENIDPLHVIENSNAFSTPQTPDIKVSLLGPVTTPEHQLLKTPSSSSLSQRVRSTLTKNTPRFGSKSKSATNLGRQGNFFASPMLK

[5] = viability loss in HepG2 hepatoma cells – cell-based, ATP luminescence, cherry-pick, activator set 2, cytotoxicity control, dose response (AID 1053143); type: functional
[6] = target: Induced myeloid leukemia cell differentiation protein Mcl-1 (Homo sapiens, UniProt Q07820); type: functional
Induced myeloid leukemia cell differentiation protein Mcl-1, sequence (Q07820 whole entry): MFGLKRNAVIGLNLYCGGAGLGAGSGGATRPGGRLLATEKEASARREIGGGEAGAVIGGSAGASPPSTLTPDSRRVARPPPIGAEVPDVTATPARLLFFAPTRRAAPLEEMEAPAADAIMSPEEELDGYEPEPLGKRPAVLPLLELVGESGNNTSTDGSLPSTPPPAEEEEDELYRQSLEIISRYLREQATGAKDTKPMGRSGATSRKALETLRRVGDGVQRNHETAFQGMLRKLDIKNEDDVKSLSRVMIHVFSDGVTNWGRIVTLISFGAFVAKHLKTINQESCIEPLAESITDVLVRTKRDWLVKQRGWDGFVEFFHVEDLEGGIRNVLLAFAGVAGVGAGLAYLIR

[7] = target: T2, Mannose-6-phosphate isomerase (Homo sapiens, UniProt P34949); experiment: MPI inhibition at elevated mannose 6-phosphate – biochemical, fluorescence intensity, high mannose 6-phosphate, primary screen (AID 1220)
T2 sequence (P34949 whole entry): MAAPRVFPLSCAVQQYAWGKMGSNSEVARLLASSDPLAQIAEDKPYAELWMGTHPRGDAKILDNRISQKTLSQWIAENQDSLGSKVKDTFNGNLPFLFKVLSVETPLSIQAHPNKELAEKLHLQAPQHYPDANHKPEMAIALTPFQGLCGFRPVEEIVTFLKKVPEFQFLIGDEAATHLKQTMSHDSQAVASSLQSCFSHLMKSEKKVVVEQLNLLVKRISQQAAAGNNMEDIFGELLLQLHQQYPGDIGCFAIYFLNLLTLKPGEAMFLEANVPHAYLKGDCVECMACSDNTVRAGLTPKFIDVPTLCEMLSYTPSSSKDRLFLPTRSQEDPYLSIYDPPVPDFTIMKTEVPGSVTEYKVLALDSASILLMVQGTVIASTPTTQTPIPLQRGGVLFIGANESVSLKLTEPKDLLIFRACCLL

[8] = target: Mitogen-activated protein kinase 10 (Homo sapiens, UniProt P53779); experiment: Dose response biochemical screening assay for inhibitors of c-Jun N-Terminal Kinase 3 (JNK3). [Related pubchem assays: 746 ]
Mitogen-activated protein kinase 10, sequence (P53779 whole entry, the tested form may be a part): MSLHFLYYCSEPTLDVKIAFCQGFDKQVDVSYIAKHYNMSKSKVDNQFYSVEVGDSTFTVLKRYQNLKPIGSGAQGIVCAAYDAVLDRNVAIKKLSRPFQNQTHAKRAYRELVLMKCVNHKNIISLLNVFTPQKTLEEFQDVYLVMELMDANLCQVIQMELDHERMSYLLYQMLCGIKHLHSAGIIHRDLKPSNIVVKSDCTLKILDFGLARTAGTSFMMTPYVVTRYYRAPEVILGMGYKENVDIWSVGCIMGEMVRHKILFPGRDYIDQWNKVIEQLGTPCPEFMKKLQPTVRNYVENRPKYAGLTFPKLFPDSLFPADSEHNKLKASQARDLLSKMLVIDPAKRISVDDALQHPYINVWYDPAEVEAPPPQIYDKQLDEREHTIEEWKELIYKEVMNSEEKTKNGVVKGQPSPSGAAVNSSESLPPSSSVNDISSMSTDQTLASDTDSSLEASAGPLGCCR

[9] = target: T3, Oxysterols receptor LXR-beta (Homo sapiens, UniProt P55055); type: functional, cell-based;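 note: agonist activity at LXR measured by a cell-based luminescence readout across a dose range, run as a counterscreen for daf-12 agonists; HEK293 cells with Gal4-LXR fusion and GAL4-driven luciferase reporter; potency for activation of Gal4-LXR reporter so compounds are agonists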
T3 sequence (P55055 whole entry): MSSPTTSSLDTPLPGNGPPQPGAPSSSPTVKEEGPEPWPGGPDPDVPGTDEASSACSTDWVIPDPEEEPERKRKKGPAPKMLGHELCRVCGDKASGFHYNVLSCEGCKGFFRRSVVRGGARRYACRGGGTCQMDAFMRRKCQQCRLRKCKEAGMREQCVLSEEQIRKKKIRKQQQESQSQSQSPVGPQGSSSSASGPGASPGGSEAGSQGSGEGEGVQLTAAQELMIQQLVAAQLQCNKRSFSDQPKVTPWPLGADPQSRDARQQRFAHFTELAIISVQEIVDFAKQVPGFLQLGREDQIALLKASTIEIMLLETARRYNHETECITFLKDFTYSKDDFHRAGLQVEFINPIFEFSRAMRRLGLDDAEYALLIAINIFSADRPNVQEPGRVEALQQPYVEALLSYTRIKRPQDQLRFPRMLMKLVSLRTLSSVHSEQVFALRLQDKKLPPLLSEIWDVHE

[10] = Luminescence Cell-Based Dose Response to Identify Activators of 5'UTR Stem-Loop Driven Prion Protein mRNA Translation in H4-C Neuroglioblastoma Cells. [Related pubchem assays: 1829 (Project Summary), 1814 (Primary HTS)]; type: functional
[11] = Luminescence Cell-Based Dose Response HTS to Identify Activators of Luciferase Translation or Activity in H4 […] Cells. [Related pubchem assays: 1829 (Project Summary), 1814 (Primary HTS)]; type: functional
[12] = Luminescence Cell-Based Dose Response to Identify Activators of Luciferase Translation or Activity in H4-C Neuroglioblastoma Cells. [Related pubchem assays: 1829 (Project Summary), 1814 (Primary HTS)]; type: functional
[13] = Luminescence Cell-Based Dose Confirmation to Identify Activators of 5'UTR Stem-Loop Driven Alpha-Synuclein mRNA Translation in H4 Neuroglioblastoma Cells. [Related pubchem assays: 1829 (Project Summary), 1814 (Primary HTS)]; type: functional
[14] = growth inhibition of yeast DHODH-expressing 3D7 parasites – SYBR Green, dry powder samples, dose response (AID 1159570); type: functional, cell-based;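 note: parasite growth measured after 72 hours of compound exposure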
[15] = Dd2 parasite growth inhibition in erythrocytes – SYBR Green, dry powder samples, set 9, dose response (AID 1159568); type: functional, cell-based
[16] = P. falciparum Dd2 growth inhibitors, dose response, SYBR Green, cherry-picked samples (AID 1159567); type: functional, cell-based
[17] = Dd2 malaria parasite growth inhibition potency – SYBR Green, dry powder samples, dose response (AID 1159566); type: functional, cell-based;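 note: potency for growth inhibition with lower SYBR green DNA signal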
[18] = growth inhibition of PfATP4-mutant resistant parasites – NITD609-resistant line, SYBR Green, dry powder, dose response (AID 1159571); type: functional, cell-based;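 note: parasites synchronized at ring stage by sorbitol before testing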
[19] = NIH-3T3 fibroblast cytotoxicity, dose response, cytotoxicity control, cell-based, fluorescence, Alamar Blue, secondary assay (AID 2327); type: functional;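 note: NIH-3T3 mouse fibroblasts cultured with fluconazole at 8 µg/mL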
[20] = fluconazole-exposed Candida albicans growth modulators – fluorescence, retest, confirmation (AID 2467); type: functional, cell-based
[21] = viability of PTEN-deleted HCT116 cells – cell-based, HCT116 PTEN knockout, dose response (AID 1047); type: functional;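 note: HCT116 colon tumor cells with PTEN knocked out; cells exposed to compound for 60 hours before readout; potency for loss of cell viability measured by luminescence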
[22] = viability of HCT116 lacking mutant beta-catenin – cell-based, human colon tumor, dose response (AID 1045); type: functional;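 note: HCT116 colon tumor cells with beta catenin knocked out; cells exposed to compound for 60 hours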
Protein skinhead-1 = target: T4, Protein skinhead-1 (Caenorhabditis elegans, UniProt P34707); type: functional
T4 sequence (P34707 whole entry): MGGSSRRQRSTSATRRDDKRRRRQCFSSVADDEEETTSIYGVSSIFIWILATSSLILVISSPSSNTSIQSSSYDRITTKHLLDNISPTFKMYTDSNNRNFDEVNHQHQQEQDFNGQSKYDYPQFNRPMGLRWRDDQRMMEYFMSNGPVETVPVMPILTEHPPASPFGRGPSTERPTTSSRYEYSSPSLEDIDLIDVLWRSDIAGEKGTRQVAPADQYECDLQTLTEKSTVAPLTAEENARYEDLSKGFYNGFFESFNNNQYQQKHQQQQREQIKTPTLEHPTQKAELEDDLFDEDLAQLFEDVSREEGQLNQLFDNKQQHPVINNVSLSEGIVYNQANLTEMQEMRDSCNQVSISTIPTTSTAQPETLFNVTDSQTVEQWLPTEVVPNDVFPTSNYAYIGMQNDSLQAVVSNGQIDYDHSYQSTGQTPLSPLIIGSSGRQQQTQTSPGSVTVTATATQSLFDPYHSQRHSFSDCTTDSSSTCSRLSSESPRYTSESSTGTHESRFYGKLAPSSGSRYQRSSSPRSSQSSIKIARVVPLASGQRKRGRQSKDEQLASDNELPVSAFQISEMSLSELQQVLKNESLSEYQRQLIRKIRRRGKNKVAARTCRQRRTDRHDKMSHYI

Large T antigen, sequence (P03070 whole entry): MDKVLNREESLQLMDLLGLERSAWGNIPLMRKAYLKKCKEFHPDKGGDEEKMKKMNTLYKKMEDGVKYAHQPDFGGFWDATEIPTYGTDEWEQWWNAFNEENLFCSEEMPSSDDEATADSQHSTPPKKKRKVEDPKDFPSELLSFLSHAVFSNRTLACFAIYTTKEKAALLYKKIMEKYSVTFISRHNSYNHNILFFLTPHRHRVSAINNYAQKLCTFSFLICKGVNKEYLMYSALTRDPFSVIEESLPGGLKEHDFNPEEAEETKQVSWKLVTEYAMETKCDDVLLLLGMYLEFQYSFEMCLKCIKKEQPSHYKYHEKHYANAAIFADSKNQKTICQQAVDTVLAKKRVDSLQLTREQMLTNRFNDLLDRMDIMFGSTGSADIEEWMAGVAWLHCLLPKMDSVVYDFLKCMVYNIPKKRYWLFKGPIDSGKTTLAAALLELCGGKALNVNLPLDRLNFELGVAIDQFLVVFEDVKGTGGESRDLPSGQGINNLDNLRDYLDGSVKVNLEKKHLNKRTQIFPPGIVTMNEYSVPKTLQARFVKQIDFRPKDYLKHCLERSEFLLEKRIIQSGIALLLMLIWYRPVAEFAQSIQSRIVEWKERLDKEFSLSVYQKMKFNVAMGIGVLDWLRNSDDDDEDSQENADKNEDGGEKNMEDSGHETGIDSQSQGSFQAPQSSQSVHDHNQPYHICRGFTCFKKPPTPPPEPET

Oc1ccc(/C=N/Nc2nccnc2Cl)cc1
IC50 (Large T antigen): 6.32 µM (active)
EC50 [1]: 1.12 µM (active)
EC50 [2]: 0.138 µM (active)
CC50 [3]: 46.1 µM (active)
IC50 [4]: 16.3 µM (active)
AC50 [5]: 13.7 µM (active)

CCOC(=O)c1c(C)oc2c1c(CN1CCN(C(=O)OCC)CC1)c(O)c1ccccc12
IC50 [6]: 3.95 µM (active)
IC50 [7]: > 50 µM (not active)

CNC(=O)c1[nH]cnc1C(=O)Nc1cccc(OC)c1
IC50 [8]: 50.1 µM (not active)

Cn1c(NCc2c[nH]c3ccccc23)nc2ccccc21
EC50 [9]: > 67.5 µM (inactive)

COc1cccc(COC(=O)Nc2ccccc2F)c1
EC50 [10]: 0.301 µM (active)
EC50 [11]: < 0.1 µM (inconclusive)
EC50 [12]: 0.344 µM (active)
EC50 [13]: 0.456 µM (active)

O=C(NC1CCC1)c1ccc(C#CC2CC2)cn1
EC50 [9]: > 67.5 µM (inactive)

C[C@@H]1CN([C@@H](C)CO)C(=O)c2cccc(NC(=O)C3CC3)c2O[C@@H]1CN(C)C(=O)Nc1ccc(C(F)(F)F)cc1
AC50 [14]: 0.312 µM (active)
AC50 [15]: 0.181 µM (active)
AC50 [16]: 0.642 µM (active)
AC50 [17]: 0.275 µM (active)
AC50 [18]: 0.322 µM (active)

S=C(Nc1ccccc1)Nc1nc2ccccc2n1CCOc1ccc(Cl)cc1
EC50 [19]: 11.1 µM (active)
EC50 [20]: 2.58 µM (active)
EC50 [21]: 17.1 µM (active)
EC50 [22]: 16 µM (active)
IC50 (Protein skinhead-1): > 100 µM (inactive)

O=C(CSc1nc(-c2ccco2)cc(C(F)(F)F)n1)NC1CCCCCCC1
IC50 (Protein skinhead-1): > 100 µM (inactive)

Cc1ccc(Nc2ncnc(-n3cccc3)n2)cc1Cl
AC50 [5]: > 52 µM (inactive)

COc1ccc2c3c([nH]c2c1)[C@H](CO)N(S(C)(=O)=O)CC31CCN(C(=O)Nc2ccccc2)CC1
AC50 [15]: 0.145 µM (active)
